# From ChEMBL document CHEMBL3244333, “2-Acetylpyridine thiosemicarbazones. 2. N4,N4-Disubstituted derivatives as potential antimalarial agents” (J Med Chem, 1979)
# Activity calls are given as the source filed them. No cut-off for these calls is given here.
# Assays:
# Plasmodium berghei [1] = assay: Antimalarial activity against Plasmodium berghei KBG 173 infected in mouse assessed as cured animal from parasite infection at 160 mg/kg; format: functional, organism-based; set-up: dose 160 mg/kg
# Plasmodium berghei [2] = assay: Antimalarial activity against Plasmodium berghei KBG 173 infected in mouse assessed as increase of mean survival time at 640 mg/kg; format: functional
# Plasmodium berghei [3] = assay: Antimalarial activity against Plasmodium berghei KBG 173 infected in mouse assessed as cured animal from parasite infection at 640 mg/kg; format: functional, organism-based; set-up: dose 640 mg/kg
# Plasmodium berghei [4] = assay: Antimalarial activity against Plasmodium berghei KBG 173 infected in mouse assessed as cured animal from parasite infection at 40 mg/kg; format: functional, organism-based; set-up: dose 40 mg/kg
# Mus musculus [5] = assay: Toxicity in Plasmodium berghei KBG 173 infected mouse at 160 mg/kg; format: organism-based; set-up: dose 160 mg/kg; conditions: in vivo
# Plasmodium berghei [6] = assay: Antimalarial activity against Plasmodium berghei KBG 173 infected in mouse assessed as increase of mean survival time at 160 mg/kg; format: functional
# Mus musculus [7] = assay: Toxicity in Plasmodium berghei KBG 173 infected mouse at 640 mg/kg; format: organism-based; set-up: dose 640 mg/kg; conditions: in vivo
# Plasmodium berghei [8] = assay: Antimalarial activity against Plasmodium berghei KBG 173 infected in mouse assessed as increase of mean survival time at 40 mg/kg; format: functional
# Mus musculus [9] = assay: Toxicity in Plasmodium berghei KBG 173 infected mouse at 320 mg/kg; format: organism-based; set-up: dose 320 mg/kg; conditions: in vivo
# Plasmodium berghei [10] = assay: Antimalarial activity against Plasmodium berghei KBG 173 infected in mouse assessed as cured animal from parasite infection at 80 mg/kg; format: functional, organism-based; set-up: dose 80 mg/kg
# Plasmodium berghei [11] = assay: Antimalarial activity against Plasmodium berghei KBG 173 infected in mouse assessed as cured animal from parasite infection at 320 mg/kg; format: functional, organism-based; set-up: dose 320 mg/kg
# Mus musculus [12] = assay: Toxicity in Plasmodium berghei KBG 173 infected mouse at 40 mg/kg; format: organism-based; set-up: dose 40 mg/kg; conditions: in vivo
SMILES,Activity (Plasmodium berghei [1]),Survival (Plasmodium berghei [2]) [days],Activity (Plasmodium berghei [3]),Activity (Plasmodium berghei [4]),Activity (Mus musculus [5]),Survival (Plasmodium berghei [6]) [days],Activity (Mus musculus [7]),Survival (Plasmodium berghei [8]) [days],Activity (Mus musculus [9]),Activity (Plasmodium berghei [10]),Activity (Plasmodium berghei [11]),Activity (Mus musculus [12])
C/C(=N/NC(=S)N1CCN(c2ccc(F)cc2)CC1)c1ccccn1,Active,9,Active,Active,,,,,,,,
C/C(=N/NC(=S)N1CCC(C)CC1)c1ccccn1,Active,0,Active,Active,Toxic,0,Toxic,,,,,
C/C(=N/NC(=S)N1CCc2ccccc21)c1ccccn1,,0.3,,,Toxic,0.3,Toxic,0.5,,,,
C/C(=N/NC(=S)N1CCCCCC1)c1ccccn1,Active,,Active,Active,Toxic,,Toxic,6.2,Toxic,Active,Active,
C/C(=N/NC(=S)N1CCCCC1)c1ccccn1,,0,,,,-0.4,,-0.4,,,,
C/C(=N/NC(=S)N1CCCCC1C)c1ccccn1 (stereo not drawn),Active,0,Active,Active,Toxic,0,Toxic,,,,,
CCC1CCCCN1C(=S)N/N=C(/C)c1ccccn1 (stereo not drawn),Active,-0.2,,,,,Toxic,5.6,,,,
C/C(=N/NC(=S)N1CCC1)c1ccccn1,Active,0,Active,,Toxic,0,Toxic,1.7,,,,
C/C(=N/NC(=S)N1CCC(c2ccccc2)CC1)c1ccccn1,Active,,Active,,,,,0.4,,Active,Active,
C/C(=N/NC(=S)N1CCCC(C)C1)c1ccccn1 (stereo not drawn),Active,0,Active,,Toxic,,Toxic,4.1,,,,
C/C(=N/NC(=S)N1CC(C)OC(C)C1)c1ccccn1 (stereo not drawn),Active,0,Active,Active,Toxic,0,Toxic,,,,,Toxic
C/C(=N/NC(=S)N(C)CCc1ccccc1)c1ccccn1,Active,,Active,,,7.2,,0.4,,,,
CCCN(CCC)C(=S)N/N=C(/C)c1ccccn1,Active,3,,Active,Toxic,0,,0,,,,Toxic
C/C(=N/NC(=S)N1CCN(C)CC1)c1ccccn1,Active,0,,Active,Toxic,0,Toxic,0,,,,Toxic
C/C(=N/NC(=S)N1CCC2(CC1)OCCO2)c1ccccn1,Active,0,,Active,Toxic,0,Toxic,0,,,,Toxic
C/C(=N/NC(=S)N(C)CC(O)C(O)C(O)C(O)CO)c1ccccn1 (stereo not drawn),,0.3,,,,1.4,Toxic,0.2,,,,

SMILES,Activity (Plasmodium berghei [1]),Survival (Plasmodium berghei [2]) [days],Activity (Plasmodium berghei [3]),Activity (Plasmodium berghei [4]),Activity (Mus musculus [5]),Survival (Plasmodium berghei [6]) [days],Activity (Mus musculus [7]),Survival (Plasmodium berghei [8]) [days],Activity (Mus musculus [9]),Activity (Plasmodium berghei [10]),Activity (Plasmodium berghei [11]),Activity (Mus musculus [12])
C/C(=N/NC(=S)N1CCN(c2ccccn2)CC1)c1ccccn1,Active,,Active,Active,,,,,,Active,Active,
C/C(=N/NC(=S)N1CCc2ccccc2C1)c1ccccn1,Active,,Active,,,7.7,,3.5,,,,
C/C(=N/NC(=S)N(Cc1ccccc1)Cc1ccccc1)c1ccccn1,,-0.2,,,Toxic,1.6,Toxic,-0.1,,,,
C/C(=N/NC(=S)N1CCCCCCCCCCCC1)c1ccccn1,,2.9,,,,0.1,,0,,,,
C/C(=N/NC(=S)N1CCCCCCC1)c1ccccn1,Active,,Active,,,,,0.6,,Active,Active,
C/C(=N/NC(=S)N(C)C)c1ccccn1,Active,0,Active,,Toxic,0,Toxic,0.5,,,,Toxic
CCOC(=O)N1CCN(C(=S)N/N=C(/C)c2ccccn2)CC1,Active,0,Active,Active,Toxic,0,Toxic,,,,,Toxic
C/C(=N/NC(=S)N1CC=CCC1)c1ccccn1,,7.4,,,Toxic,1.4,Toxic,4,,,,
C/C(=N/NC(=S)N1CCCC1)c1ccccn1,Active,0,Active,Active,Toxic,0,Toxic,8.9,,,,Toxic
C/C(=N/NC(=S)N(C)C1CCCCC1)c1ccccn1,Active,-0.3,,,Toxic,,Toxic,3.7,,,,
C/C(=N/NC(=S)N1CCCCCCCC1)c1ccccn1,,9,Active,,,1.7,,-0.3,,,,
C/C(=N/NC(=S)N1CCC(O)CC1)c1ccccn1,Active,0.6,,,Toxic,0,Toxic,-0.1,,,,Toxic
C/C(=N/NC(=S)N(CC(C)C)CC(C)C)c1ccccn1,,0.5,,,Toxic,0.8,Toxic,-0.2,,,,
C/C(=N/NC(=S)N1CCN(c2ccccn2)CC1)c1ccccn1.Cl,,0,,,,,Toxic,3.2,,,,
C/C(=N/NC(=S)N1CCCN(C)CC1)c1ccccn1,,0,,,Toxic,0.8,Toxic,0.8,,,,Toxic
